In PMC8633584, “Patient mutations in human ATP:cob(I)alamin adenosyltransferase differentially affect its catalytic versus chaperone functions” (The Journal of Biological Chemistry, 2021):
Where a chain is given by its changes, count along the chain named. One block for each compound: values may come before it.

How the values were obtained:
WT ATR [1] = molecular target: T1, WT ATR (Homo sapiens, UniProt Q96EY8); conditions: WT ATR 1.1 mM active sites, PPPi 1 mM, no AdoCbl
T1 sequence (Q96EY8 38-250 limits assumed): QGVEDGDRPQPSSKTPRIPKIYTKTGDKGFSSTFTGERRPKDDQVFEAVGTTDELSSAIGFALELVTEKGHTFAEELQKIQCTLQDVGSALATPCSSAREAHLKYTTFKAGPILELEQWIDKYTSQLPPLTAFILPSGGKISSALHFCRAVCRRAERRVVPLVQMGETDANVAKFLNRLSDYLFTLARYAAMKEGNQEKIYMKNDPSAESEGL
Description: (§1) The samples were prepared in an anaerobic chamber and contained: PPPi (1 mM), WT, R190C or E193K ATR (1.1 mM active sites), MgCl2 (2 mM), AdoCbl (1 mM) in 50 mM Hepes buffer pH 7.5 containing 150 mM KCl and 2 mM DTT at room temperature. The samples were transferred to 5-mm (internal diameter) NMR tubes (Wilmad-Glass), and the final volume was brought up to 0.4 ml with 90% water and 10% D2O (Cambridge Isotope Labs).
(§2) […] NMR spectra were collected at 242.5 MHz on a Bruker AVANCE NEO spectrometer equipped with a prodigy cryoprobe locked to D2O. All the NMR experiments were carried out at 25 °C using 12 μs 90° pulse widths, 8192 data points, and 4096 scans with 0.8 s recycle time. The chemical shifts were reported on proton-decoupled spectra by Gaussian line fits to the singlet resonances, relative to an external standard of 85% H3P0_4.

R190C ATR [2] = molecular target: T2, R190C ATR (Homo sapiens, UniProt Q96EY8, R190C); conditions: 1.1:1.0:1.0 R190C ATR:AdoCbl:PPPi
T2 sequence (Q96EY8 38-250 R190C limits assumed): T1 sequence (Q96EY8 38-250 limits assumed) with R153C
Description: as §1, §2

E193K ATR [3] = molecular target: T3, E193K ATR (Homo sapiens, UniProt Q96EY8, E193K); conditions: 1.1:1.0:1.0 E193K ATR:AdoCbl:PPPi
T3 sequence (Q96EY8 38-250 E193K limits assumed): T1 sequence (Q96EY8 38-250 limits assumed) with E156K
Description: as §1, §2

WT ATR [4] = molecular target: T1, WT ATR; test: AdoCbl synthesis, steady-state kinetics; format: biochemical; design: The expression construct for recombinant human full-length and ΔN18 ATR in a pET-28b vector; His-tag (thrombin-cleavable) (N, cleaved yes); made in house; host or cells: E. coli BL21 (DE3)
Description: (§3) AdoCbl synthesis was determined by mixing cob(II)alamin (40 μM) in buffer A at 20 °C with ∼10 equivalents of titanium citrate under strictly anaerobic conditions. The reaction was started by addition of ATP (1 mM) and ATR (1 μM trimer concentration). The concentration of cob(I)alamin formed by reduction of cob(II)alamin was estimated using ε386nm = 28.0 cm^−1 mM^−1. The rate of AdoCbl synthesis was determined by measuring the change in absorbance at 522 nm using Δ ε522nm =5.06 mM^−1 cm^−1.

R190C ATR [5] = molecular target: T2, R190C ATR; test: AdoCbl synthesis, steady-state kinetics; format: biochemical; design: The expression construct for recombinant human full-length and ΔN18 ATR in a pET-28b vector; His-tag (thrombin-cleavable) (N, cleaved yes); made in house; host or cells: E. coli BL21 (DE3)
Description: as §3

R190H ATR [6] = molecular target: T4, R190H ATR (Homo sapiens, UniProt Q96EY8, R190H); test: AdoCbl synthesis, steady-state kinetics; format: biochemical
T4 construct: The expression construct for recombinant human full-length and ΔN18 ATR in a pET-28b vector; His-tag (thrombin-cleavable) (N, cleaved yes); made in house; host or cells: E. coli BL21 (DE3)
T4 sequence (Q96EY8 38-250 R190H limits assumed): T1 sequence (Q96EY8 38-250 limits assumed) with R153H
Description: as §3

E193K ATR [7] = molecular target: T3, E193K ATR; test: AdoCbl synthesis, steady-state kinetics; format: biochemical; design: WT and the R190C variants of ΔN18-ATR and full-length E193K ATR were purified; His-tag (thrombin-cleavable) (N, cleaved yes); made in house; host or cells: E. coli BL21 (DE3)
Description: as §3

WT ATR [8] = molecular target: T1, WT ATR; test: AdoCbl binding to ATR, UV-visible titration; design: The expression construct for recombinant human full-length and ΔN18 ATR in a pET-28b vector; His-tag (thrombin-cleavable) (N, cleaved yes); made in house; host or cells: E. coli BL21 (DE3)
Description: (§4) Unless noted otherwise, all titration experiments were performed in buffer A. AdoCbl binding was monitored by adding increasing concentrations of WT or mutant ATR to 30 μM AdoCbl in buffer A at 20 °C. The spectrum was recorded 5 min after each addition. The concentration of bound AdoCbl was determined using […] = 8.0 cm^−1 mM^−1. The change in absorbance at 455 nm (corresponding to base-off AdoCbl bound to ATR) was plotted versus ATR concentration and fitted using the Dynafit software (BioKin) ([35]). Equation 1 (where A is the absorbance at 455 nm following each aliquot of ATR, ΔAmax is the maximal change in absorbance at 455 nm upon binding of AdoCbl to ATR, [E]t is the concentration of ATR active sites, and [L]t is the total AdoCbl concentration) was used to determine the dissociation constant for AdoCbl.(1) A=ΔAmax×([E]t+[L]t+Kd)+([E]t+[L]t+Kd)^2−4[L]t[E]t/2[L]t
(§5) The effect of PPPi on the KD for AdoCbl was determined by performing the above titration in the presence of 1 mM PPPi under anaerobic conditions.

R190C ATR [9] = molecular target: T2, R190C ATR; test: AdoCbl binding to ATR, UV-visible titration; design: The expression construct for recombinant human full-length and ΔN18 ATR in a pET-28b vector; His-tag (thrombin-cleavable) (N, cleaved yes); made in house; host or cells: E. coli BL21 (DE3)
Description: as §4, §5

R190H ATR [10] = molecular target: T4, R190H ATR; test: AdoCbl binding to ATR, UV-visible titration
Description: as §4, §5

E193K ATR [11] = molecular target: T3, E193K ATR; test: AdoCbl binding to ATR, UV-visible titration; design: WT and the R190C variants of ΔN18-ATR and full-length E193K ATR were purified; His-tag (thrombin-cleavable) (N, cleaved yes); made in house; host or cells: E. coli BL21 (DE3)
Description: as §4, §5

PPPi binding by 31P NMR (WT ATR [1]): not bound to the protein | PPPi binding by 31P NMR (R190C ATR [2]): did not lead to detectable PPPi binding | PPPi binding by 31P NMR (E193K ATR [3]): did not lead to detectable PPPi binding
SMILES: O=P(O)(O)OP(=O)(O)OP(=O)(O)O [PPPi, inorganic triphosphate]

kcat (WT ATR [4]; AdoCbl synthesis, cob(II)alamin 40 μM, titanium citrate, anaerobic, 20 °C): 0.192 ± 0.0267 s⁻¹ | Km (WT ATR [4]; read-out: KM (ATP)): 4.5 ± 1.1 µM | increase of KM for ATP relative to WT ATR (R190C ATR [5]; R190C ATR vs WT): 20 fold | lower activity (kcat) relative to WT ATR (R190C ATR [5]; R190C ATR vs WT): 16 fold | kcat (R190C ATR [5]; R190C ATR, AdoCbl synthesis, cob(II)alamin 40 μM, titanium citrate, anaerobic, 20 °C): 0.012 ± 0.0017 s⁻¹ | Km (R190C ATR [5]; R190C ATR, read-out: KM (ATP)): 92 ± 31 µM | lower activity (kcat) relative to WT ATR (R190H ATR [6]; R190H ATR vs WT): 115 fold | kcat (R190H ATR [6]; R190H ATR, AdoCbl synthesis, cob(II)alamin 40 μM, titanium citrate, anaerobic, 20 °C): 0.0017 ± 0.0017 s⁻¹ | increase of KM for ATP relative to WT ATR (E193K ATR [7]; E193K ATR vs WT): 52 fold | kcat (E193K ATR [7]; E193K ATR, AdoCbl synthesis, cob(II)alamin 40 μM, titanium citrate, anaerobic, 20 °C): 0.18 ± 0.01 s⁻¹ | Km (E193K ATR [7]; E193K ATR, read-out: KM (ATP)): 235 ± 16 µM
SMILES: Nc1ncnc2c1ncn2[C@@H]1O[C@H](COP(=O)(O)OP(=O)(O)OP(=O)(O)O)[C@@H](O)[C@H]1O [ATP]

SMILES: C/C1=C2/[N-][C@H]([C@H](CC(N)=O)[C@@]2(C)CCC(=O)NC[C@@H](C)OP(=O)([O-])O[C@H]2[C@@H](O)[C@@H](n3cnc4cc(C)c(C)cc43)O[C@@H]2CO)[C@]2(C)N=C(/C(C)=C3N=C(/C=C4N=C1[C@@H](CCC(N)=O)C\4(C)C)[C@@H](CCC(N)=O)[C@]\3(C)CC(N)=O)[C@@H](CCC(N)=O)[C@]2(C)CC(N)=O.[CH2-][C@H]1O[C@@H](n2cnc3c(N)ncnc32)[C@H](O)[C@@H]1O.[Co+3] [AdoCbl, 5′-deoxyadenosylcobalamin]
Kd (WT ATR [8]; 1 mM PPPi, anaerobic): 0.2 ± 0.1 µM | decrease of KD for AdoCbl by PPPi (WT ATR [8]; PPPi 1 mM): 5 fold | Kd (WT ATR [8]; without PPPi, buffer A, 20 °C): 1 ± 0.3 µM | Kd (R190C ATR [9]; 1 mM PPPi, anaerobic): 4 ± 1 µM | lower KD(AdoCbl) in the presence of PPPi (R190C ATR [9]; PPPi 1 mM): 10 fold | Kd (R190C ATR [9]; without PPPi, buffer A, 20 °C): 40 ± 6 µM | Kd (R190H ATR [10]; 1 mM PPPi, anaerobic): 13 ± 3 µM | lower KD(AdoCbl) in the presence of PPPi (R190H ATR [10]; PPPi 1 mM): 3.9 fold | Kd (R190H ATR [10]; without PPPi, buffer A, 20 °C): 50 ± 5 µM | Kd (E193K ATR [11]; 1 mM PPPi, anaerobic): 100 ± 20 µM | effect of PPPi on KD for AdoCbl (E193K ATR [11]; PPPi 1 mM): no effect | Kd (E193K ATR [11]; without PPPi, buffer A, 20 °C): 120 ± 30 µM
